This is an account of results in ChEMBL document CHEMBL4602719, “Discovery of Potent, Selective, and Orally Bioavailable Inhibitors of USP7 with In Vivo Antitumor Activity” (J Med Chem, 2020).

What is called IC50 is the concentration at which inhibition is half-maximal. The clearance is the volume of plasma or blood freed of the substance per unit of time. One may read the EC50 as the concentration at which the effect is half-maximal. As usually defined, the AUC is concentration integrated over time.

The target of series [1] is Ubiquitin carboxyl-terminal hydrolase 19 (Homo sapiens, UniProt O94966). The series is described as follows: Inhibition of human GST-tagged USP19 (1 to 1290 residues) expressed in Escherichia coli assessed as cleavage of Ubiquitin-Rhodamine110-glycine to Ubiquitin and Rhodamine110-glycine using Ubiquitin-Rhodamine110-glycine as substrate by fluorescence based analysis.
Sequence of Ubiquitin carboxyl-terminal hydrolase 19 (O94966 whole entry, the tested form may be a part): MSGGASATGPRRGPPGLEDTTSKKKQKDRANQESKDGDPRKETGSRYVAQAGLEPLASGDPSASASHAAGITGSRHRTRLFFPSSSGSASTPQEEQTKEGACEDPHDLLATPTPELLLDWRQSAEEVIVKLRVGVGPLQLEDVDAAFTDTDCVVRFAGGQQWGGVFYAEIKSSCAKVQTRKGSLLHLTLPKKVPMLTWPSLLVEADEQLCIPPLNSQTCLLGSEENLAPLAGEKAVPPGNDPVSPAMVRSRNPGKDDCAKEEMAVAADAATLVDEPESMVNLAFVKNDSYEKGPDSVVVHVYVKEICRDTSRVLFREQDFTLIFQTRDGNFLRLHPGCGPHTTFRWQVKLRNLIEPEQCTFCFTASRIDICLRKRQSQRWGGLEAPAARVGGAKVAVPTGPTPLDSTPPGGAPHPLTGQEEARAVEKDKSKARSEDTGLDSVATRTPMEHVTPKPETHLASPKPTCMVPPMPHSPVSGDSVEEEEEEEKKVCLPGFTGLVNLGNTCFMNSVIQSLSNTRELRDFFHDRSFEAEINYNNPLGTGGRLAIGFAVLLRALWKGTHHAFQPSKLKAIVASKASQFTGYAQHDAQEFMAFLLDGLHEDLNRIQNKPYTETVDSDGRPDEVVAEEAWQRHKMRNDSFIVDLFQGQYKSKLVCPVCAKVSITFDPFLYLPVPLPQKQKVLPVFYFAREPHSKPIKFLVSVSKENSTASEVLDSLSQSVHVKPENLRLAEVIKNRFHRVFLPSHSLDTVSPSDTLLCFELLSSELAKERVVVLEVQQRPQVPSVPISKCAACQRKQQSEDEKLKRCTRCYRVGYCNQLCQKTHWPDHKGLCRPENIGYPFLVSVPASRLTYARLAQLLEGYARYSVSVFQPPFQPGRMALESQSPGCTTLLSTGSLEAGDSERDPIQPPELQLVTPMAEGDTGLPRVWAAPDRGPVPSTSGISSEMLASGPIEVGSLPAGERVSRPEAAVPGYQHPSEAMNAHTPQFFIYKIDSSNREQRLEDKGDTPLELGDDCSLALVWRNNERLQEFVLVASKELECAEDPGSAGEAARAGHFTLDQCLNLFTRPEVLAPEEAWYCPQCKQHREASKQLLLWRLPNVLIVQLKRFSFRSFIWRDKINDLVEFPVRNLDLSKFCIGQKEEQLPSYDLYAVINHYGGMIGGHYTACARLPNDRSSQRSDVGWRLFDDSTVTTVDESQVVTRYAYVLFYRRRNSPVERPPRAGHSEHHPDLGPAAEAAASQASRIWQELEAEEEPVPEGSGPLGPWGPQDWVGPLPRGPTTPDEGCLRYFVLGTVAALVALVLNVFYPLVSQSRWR

Series [2] concerns the target Ubiquitin carboxyl-terminal hydrolase 14 (Homo sapiens, UniProt P54578). The series is described as follows: Inhibition of human His6-tagged USP14 expressed in Escherichia coli using Ubiquitin-Rhodamine110-glycine as substrate by fluorescence based analysis.
Series [3] addresses Ubiquitin carboxyl-terminal hydrolase 28 (Homo sapiens, UniProt Q96RU2). The series is described as follows: Inhibition of human GST-tagged USP28 expressed in Escherichia coli assessed as cleavage of Ubiquitin-Rhodamine110-glycine to Ubiquitin and Rhodamine110-glycine using Ubiquitin-Rhodamine110-glycine as substrate by fluorescence based analysis.
A short description of series [4]: Clearance in Sprague-Dawley rat at 0.5 mg/kg, iv. As to conditions: in vivo. It counts as ADME, organism-based.
In series [5] the target is Ubiquitin carboxyl-terminal hydrolase 25 (Homo sapiens, UniProt Q9UHP3). The series is described as follows: Inhibition of human GST-tagged USP25 expressed in Escherichia coli assessed as cleavage of Ubiquitin-Rhodamine110-glycine to Ubiquitin and Rhodamine110-glycine using Ubiquitin-Rhodamine110-glycine as substrate by fluorescence based analysis.
Sequence of Ubiquitin carboxyl-terminal hydrolase 25 (Q9UHP3 whole entry): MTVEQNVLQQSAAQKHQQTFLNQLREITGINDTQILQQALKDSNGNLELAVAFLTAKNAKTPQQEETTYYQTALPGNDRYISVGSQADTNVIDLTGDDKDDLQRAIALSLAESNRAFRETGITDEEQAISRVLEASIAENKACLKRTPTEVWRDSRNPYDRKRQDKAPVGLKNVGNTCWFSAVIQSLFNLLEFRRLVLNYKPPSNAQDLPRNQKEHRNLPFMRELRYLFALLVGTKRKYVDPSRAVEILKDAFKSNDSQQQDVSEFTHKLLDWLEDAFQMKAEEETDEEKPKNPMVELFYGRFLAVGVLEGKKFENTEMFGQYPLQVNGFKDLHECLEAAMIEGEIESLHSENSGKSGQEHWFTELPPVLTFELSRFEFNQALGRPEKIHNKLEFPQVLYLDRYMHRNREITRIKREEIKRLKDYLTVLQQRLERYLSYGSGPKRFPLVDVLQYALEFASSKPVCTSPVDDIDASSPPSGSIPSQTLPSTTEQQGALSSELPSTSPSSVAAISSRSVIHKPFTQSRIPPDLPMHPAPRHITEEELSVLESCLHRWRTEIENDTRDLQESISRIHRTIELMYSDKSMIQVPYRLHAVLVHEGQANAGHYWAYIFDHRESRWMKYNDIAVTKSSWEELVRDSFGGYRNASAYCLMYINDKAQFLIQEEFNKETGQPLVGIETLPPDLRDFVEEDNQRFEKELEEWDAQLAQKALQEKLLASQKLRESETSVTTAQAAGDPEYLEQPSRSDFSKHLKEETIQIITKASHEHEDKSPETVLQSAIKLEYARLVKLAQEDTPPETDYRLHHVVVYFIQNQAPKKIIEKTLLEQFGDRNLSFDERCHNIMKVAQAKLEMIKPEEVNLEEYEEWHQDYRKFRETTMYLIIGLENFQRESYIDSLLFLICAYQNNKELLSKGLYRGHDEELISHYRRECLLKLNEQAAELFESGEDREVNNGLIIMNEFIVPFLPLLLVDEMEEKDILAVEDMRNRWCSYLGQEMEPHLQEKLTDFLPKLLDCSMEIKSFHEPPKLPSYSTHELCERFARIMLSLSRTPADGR
For series [6], the target named is Ubiquitin carboxyl-terminal hydrolase 16 (Homo sapiens, UniProt Q9Y5T5). The series is described as follows: Inhibition of USP16 (unknown origin).
Sequence of Ubiquitin carboxyl-terminal hydrolase 16 (Q9Y5T5 whole entry): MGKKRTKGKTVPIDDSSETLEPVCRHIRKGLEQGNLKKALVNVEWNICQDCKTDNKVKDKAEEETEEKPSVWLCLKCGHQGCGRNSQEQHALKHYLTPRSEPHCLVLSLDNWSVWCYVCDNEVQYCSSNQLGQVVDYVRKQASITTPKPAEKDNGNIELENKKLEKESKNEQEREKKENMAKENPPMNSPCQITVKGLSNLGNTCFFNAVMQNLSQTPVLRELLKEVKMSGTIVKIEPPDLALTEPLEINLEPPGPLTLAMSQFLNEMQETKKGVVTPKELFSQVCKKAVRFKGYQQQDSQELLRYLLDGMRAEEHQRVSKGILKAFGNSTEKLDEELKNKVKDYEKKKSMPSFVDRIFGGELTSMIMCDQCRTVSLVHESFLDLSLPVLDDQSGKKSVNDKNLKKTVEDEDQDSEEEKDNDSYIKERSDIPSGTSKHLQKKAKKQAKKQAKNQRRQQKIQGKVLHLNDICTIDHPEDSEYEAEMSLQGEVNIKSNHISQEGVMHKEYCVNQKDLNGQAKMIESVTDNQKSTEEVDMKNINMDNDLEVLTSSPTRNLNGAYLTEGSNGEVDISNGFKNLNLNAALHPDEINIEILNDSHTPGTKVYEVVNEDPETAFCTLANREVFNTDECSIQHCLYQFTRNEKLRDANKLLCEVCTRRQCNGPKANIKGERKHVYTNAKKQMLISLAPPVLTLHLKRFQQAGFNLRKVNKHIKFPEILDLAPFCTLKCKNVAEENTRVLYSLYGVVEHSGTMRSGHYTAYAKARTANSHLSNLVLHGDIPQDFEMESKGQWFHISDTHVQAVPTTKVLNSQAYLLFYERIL
In series [7] the target is Voltage-gated inwardly rectifying potassium channel KCNH2 (Homo sapiens, UniProt Q12809). The series is described as follows: Inhibition of human ERG.
Series [8] addresses Ubiquitin carboxyl-terminal hydrolase CYLD (Homo sapiens, UniProt Q9NQC7). The series is described as follows: Inhibition of human 6His-tagged CYLD expressed in baculovirus infected Sf21 insect cells assessed as cleavage of Ubiquitin-Rhodamine110-glycine to Ubiquitin and Rhodamine110-glycine using Ubiquitin-Rhodamine110-glycine as substrate by fluorescence based analysis.
Series [9] has as its target Ubiquitin carboxyl-terminal hydrolase 7 (Homo sapiens, UniProt Q93009). The experiment in a line: Inhibition of USP7 in human RKO cells transfected with p53 luciferase reporter vector assessed as increase in p53-dependent luciferase activity measured after 18 hrs by BrightGlo luciferase assay. The series is classed as cell-based. A general note: In a reporter assay the amount or activity of a reporter protein is the signal.

Series [10] in a line: AUC in Sprague-Dawley rat at 2 mg/kg, po. It counts as ADME, organism-based. As to conditions: in vivo.
The target in series [11] is Ubiquitin thioesterase OTUB2 (Homo sapiens, UniProt Q96DC9). The series is described as follows: Inhibition of human GST-tagged OTUB2 expressed in Escherichia coli assessed as cleavage of Ubiquitin-Rhodamine110-glycine to Ubiquitin and Rhodamine110-glycine using Ubiquitin-Rhodamine110-glycine as substrate by fluorescence based analysis.
Sequence of Ubiquitin thioesterase OTUB2 (Q96DC9 whole entry): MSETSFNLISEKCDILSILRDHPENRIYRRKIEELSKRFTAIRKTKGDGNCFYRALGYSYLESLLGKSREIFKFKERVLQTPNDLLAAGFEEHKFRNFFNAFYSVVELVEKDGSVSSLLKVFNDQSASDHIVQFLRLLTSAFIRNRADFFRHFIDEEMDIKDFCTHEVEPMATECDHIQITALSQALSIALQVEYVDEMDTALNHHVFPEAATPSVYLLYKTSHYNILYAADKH
Series [12] deals with T1, Ubiquitin carboxyl-terminal hydrolase 47 (Homo sapiens, UniProt Q96K76).
T1 sequence (Q96K76 whole entry): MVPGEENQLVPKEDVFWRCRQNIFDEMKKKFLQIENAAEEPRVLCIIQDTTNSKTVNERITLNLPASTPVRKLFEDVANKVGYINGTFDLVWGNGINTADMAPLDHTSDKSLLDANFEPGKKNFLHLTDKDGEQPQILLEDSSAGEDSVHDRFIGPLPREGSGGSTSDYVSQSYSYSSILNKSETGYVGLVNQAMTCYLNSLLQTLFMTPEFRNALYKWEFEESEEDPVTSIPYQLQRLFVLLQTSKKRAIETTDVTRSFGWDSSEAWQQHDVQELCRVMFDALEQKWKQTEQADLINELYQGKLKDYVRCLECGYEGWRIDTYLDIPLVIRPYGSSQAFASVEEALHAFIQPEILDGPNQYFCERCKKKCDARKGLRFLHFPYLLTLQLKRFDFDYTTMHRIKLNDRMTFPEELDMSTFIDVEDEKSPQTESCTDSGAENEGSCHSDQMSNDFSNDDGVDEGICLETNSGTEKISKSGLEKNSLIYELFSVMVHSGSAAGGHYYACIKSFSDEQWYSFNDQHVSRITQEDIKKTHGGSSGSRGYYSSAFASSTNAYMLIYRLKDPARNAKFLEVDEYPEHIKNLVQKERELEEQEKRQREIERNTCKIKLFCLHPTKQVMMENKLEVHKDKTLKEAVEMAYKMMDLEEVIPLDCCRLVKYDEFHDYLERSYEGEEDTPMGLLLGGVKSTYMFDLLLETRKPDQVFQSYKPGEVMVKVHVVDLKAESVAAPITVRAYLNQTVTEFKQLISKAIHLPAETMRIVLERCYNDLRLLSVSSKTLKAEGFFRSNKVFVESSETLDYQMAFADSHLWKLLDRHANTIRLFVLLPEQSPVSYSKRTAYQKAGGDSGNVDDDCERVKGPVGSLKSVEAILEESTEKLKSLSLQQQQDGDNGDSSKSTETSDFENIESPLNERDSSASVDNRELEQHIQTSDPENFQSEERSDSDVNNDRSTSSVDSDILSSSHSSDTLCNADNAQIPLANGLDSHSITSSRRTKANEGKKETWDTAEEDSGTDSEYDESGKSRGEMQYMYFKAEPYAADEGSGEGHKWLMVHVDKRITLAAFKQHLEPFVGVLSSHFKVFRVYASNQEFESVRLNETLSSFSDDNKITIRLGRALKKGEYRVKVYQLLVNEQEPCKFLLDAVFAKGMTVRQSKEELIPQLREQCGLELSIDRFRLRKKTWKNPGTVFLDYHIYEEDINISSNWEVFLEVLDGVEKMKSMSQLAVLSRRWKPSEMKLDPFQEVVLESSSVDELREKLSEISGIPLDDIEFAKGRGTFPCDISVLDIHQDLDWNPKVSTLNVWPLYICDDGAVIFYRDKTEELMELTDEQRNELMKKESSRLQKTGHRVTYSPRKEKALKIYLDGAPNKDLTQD
The experiment in a line: Inhibition of USP47 (unknown origin) by biochemical assay.

Series [13] addresses Ubiquitin carboxyl-terminal hydrolase 27 (Homo sapiens, UniProt A6NNY8). The experiment in a line: Inhibition of human DAC-tagged USP27X expressed in Escherichia coli assessed as cleavage of […]-linked di-ubiquitin to mono-ubiquitin using di-ubiquitin as substrate by mass spectrometry.

Sequence of Ubiquitin carboxyl-terminal hydrolase CYLD (Q9NQC7 whole entry): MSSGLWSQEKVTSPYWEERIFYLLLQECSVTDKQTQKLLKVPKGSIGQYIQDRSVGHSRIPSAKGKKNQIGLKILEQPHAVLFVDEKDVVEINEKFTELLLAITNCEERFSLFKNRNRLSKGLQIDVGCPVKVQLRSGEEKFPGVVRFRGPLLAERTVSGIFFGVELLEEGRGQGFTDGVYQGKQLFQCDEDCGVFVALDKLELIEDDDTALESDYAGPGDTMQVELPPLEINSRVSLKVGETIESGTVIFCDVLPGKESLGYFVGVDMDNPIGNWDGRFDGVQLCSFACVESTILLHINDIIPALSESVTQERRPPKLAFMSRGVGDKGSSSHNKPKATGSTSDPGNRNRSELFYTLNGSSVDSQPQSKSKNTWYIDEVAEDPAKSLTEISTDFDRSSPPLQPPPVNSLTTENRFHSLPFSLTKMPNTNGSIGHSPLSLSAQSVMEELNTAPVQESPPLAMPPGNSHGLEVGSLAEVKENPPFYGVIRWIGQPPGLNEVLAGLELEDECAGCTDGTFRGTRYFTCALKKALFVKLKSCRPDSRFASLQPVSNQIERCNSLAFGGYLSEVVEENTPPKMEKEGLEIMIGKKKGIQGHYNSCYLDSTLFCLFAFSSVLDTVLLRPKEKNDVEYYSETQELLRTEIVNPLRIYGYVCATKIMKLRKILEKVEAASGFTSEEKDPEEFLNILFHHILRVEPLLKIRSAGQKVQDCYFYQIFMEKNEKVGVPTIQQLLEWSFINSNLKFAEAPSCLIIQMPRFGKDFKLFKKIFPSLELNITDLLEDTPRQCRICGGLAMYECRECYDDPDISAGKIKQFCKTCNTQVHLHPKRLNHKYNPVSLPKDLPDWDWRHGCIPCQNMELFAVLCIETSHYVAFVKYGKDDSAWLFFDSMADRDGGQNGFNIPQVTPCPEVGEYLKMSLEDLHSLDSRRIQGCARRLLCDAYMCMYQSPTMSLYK
Sequence of Ubiquitin carboxyl-terminal hydrolase 27 (A6NNY8 whole entry): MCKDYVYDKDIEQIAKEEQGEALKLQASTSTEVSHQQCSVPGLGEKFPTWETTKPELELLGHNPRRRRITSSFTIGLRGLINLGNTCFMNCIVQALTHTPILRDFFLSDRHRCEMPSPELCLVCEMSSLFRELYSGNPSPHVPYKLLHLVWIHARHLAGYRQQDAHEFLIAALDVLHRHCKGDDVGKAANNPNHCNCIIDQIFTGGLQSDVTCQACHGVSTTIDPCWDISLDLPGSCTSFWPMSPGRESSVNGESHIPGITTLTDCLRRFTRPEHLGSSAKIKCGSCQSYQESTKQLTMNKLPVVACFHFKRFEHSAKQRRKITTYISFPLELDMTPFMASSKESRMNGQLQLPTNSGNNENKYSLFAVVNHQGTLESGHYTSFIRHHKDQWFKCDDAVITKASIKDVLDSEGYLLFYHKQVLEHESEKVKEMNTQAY

On to `Cc1cc(Cl)cc(-c2ccnc3cc(CN4C(=O)C5C(C4=O)C5(C)C)sc23)c1O[C@@H]1CCNC[C@@H]1C` (stereo partly drawn), for which the IC50 was > 10 µM in series [1]; > 10 µM in [2]; > 10 µM in [3]; > 10 µM in [5]; > 10 µM in [6]; 400 nM in series [7]. Moreover, the IC50 in series [8], in [11], in series [12] and in series [13] was > 10 µM throughout. The clearance in series [4] was 1.83 mL/min/kg. Besides, the EC50 in series [9] was 65 nM. In series [10], the AUC is 4700 ng·h/mL.
